Each structure is given as a SMILES string.

Sequence of human Nav1.7 (Q15858 other isoform, or with tags, fused parts or gaps): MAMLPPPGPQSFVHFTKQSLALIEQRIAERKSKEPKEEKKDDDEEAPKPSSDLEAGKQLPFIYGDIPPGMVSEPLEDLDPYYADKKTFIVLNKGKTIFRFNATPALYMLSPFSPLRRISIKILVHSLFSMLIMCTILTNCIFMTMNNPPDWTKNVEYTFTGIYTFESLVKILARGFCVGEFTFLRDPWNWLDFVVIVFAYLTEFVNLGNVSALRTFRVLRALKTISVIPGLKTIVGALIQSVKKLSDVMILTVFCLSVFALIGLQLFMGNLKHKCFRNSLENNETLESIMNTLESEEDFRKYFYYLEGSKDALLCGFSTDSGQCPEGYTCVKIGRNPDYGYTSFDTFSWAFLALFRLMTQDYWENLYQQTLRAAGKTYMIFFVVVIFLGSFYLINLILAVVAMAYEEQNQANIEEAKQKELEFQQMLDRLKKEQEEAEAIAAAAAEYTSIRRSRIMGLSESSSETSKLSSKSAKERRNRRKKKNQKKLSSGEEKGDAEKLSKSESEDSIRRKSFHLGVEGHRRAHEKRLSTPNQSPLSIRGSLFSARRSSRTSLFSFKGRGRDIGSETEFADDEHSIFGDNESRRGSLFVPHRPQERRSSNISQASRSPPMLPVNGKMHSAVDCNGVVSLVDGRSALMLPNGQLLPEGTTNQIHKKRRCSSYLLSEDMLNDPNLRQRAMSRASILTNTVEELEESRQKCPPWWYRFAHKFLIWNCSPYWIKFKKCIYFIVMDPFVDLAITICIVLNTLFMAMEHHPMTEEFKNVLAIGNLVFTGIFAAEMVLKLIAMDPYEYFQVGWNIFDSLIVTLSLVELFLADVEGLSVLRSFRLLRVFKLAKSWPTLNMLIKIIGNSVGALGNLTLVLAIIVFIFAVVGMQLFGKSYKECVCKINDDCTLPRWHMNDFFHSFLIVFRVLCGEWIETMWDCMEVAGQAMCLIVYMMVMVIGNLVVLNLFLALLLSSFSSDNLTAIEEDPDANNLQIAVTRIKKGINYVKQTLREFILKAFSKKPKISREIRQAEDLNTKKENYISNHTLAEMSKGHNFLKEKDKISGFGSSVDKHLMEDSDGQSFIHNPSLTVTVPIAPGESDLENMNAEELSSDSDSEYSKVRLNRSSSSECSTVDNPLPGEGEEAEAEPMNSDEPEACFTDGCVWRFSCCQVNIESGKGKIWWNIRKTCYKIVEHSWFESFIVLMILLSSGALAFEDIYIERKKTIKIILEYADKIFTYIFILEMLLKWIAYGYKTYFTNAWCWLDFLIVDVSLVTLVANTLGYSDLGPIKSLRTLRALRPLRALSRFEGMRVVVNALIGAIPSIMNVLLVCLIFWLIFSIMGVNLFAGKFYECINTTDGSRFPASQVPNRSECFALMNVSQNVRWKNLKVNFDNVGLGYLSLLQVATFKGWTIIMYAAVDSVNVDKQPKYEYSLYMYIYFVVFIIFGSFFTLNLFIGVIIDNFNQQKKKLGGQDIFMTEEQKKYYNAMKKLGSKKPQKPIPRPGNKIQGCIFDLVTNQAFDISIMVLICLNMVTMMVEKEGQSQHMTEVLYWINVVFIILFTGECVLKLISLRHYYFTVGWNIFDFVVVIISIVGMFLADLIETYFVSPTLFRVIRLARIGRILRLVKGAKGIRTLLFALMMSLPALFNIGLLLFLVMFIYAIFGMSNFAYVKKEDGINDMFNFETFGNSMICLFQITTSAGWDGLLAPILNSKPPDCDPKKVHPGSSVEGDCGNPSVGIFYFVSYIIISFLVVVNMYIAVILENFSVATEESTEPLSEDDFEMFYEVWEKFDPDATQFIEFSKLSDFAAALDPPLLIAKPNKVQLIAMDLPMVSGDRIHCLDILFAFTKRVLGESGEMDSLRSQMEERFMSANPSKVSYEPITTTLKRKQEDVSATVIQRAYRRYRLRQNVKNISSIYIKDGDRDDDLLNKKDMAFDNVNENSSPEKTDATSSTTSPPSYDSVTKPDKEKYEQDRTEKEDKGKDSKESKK

The experiment concerns the target human Nav1.7 (Homo sapiens (Human), UniProt Q15858). Nature of the experiment: FLIPR or FLIPR TETRA sodium dye assay with KCl and test article pre-incubation. In kind it is cell-based. Conditions: sodium dye assay with KCl; recombinant Nav1.7/HEK293 cells; read-out: Nav1.7 IC50 (μM) ± SEM.
The IC50 is the concentration that gives 50% inhibition. With `O=C(c1cccc(-c2ccc(Oc3ccc(F)cc3)cc2)n1)N1CCN(S(=O)(=O)c2ccc(OC(F)(F)F)cc2)CC1` [Compound 7, (6-(4-(4-fluorophenoxy)phenyl)pyridin-2-yl)(4-((4-(trifluoromethoxy)phenyl)sulfonyl)piperazin-1-yl)methanone], the IC50 is 0.19 ± 0.05 µM.
Consider `CS(=O)(=O)c1cccc(S(=O)(=O)N2CCN(C(=O)c3cccc(-c4ccc(Oc5ccc(F)cc5)cc4)n3)CC2)c1` [Compound 8, (6-(4-(4-fluorophenoxy)phenyl)pyridin-2-yl)(4-((3-(methylsulfonyl)phenyl)sulfonyl)piperazin-1-yl)methanone], for which the IC50 amounted to 0.78 ± 0.17 µM.
`N#Cc1cccc(S(=O)(=O)N2CCN(C(=O)c3cccc(-c4ccc(Oc5ccc(F)cc5)cc4)n3)CC2)c1` [Compound 10, 3-((4-(6(4-(4-fluorophenoxy)phenyl)picolinoyl)piprazin-1-yl)sulfonyl)benzonitrile]: the IC50 was 0.43 ± 0.11 µM.
As for `CN(C)S(=O)(=O)N1CCN(C(=O)c2cccc(-c3ccc(Oc4ccc(F)cc4)cc3)n2)CC1` [Compound 11, 4-(6-(4-(4-fluorophenoxy)phenyl)picolinoyl)-N,N-dimethyl-piperazine-1-sulfonamide], the IC50 is 1.01 ± 0.09 µM.
As for `CC1(C)C2CCC1(CS(=O)(=O)N1CCN(C(=O)c3cccc(-c4ccc(Oc5ccc(F)cc5)cc4)n3)CC1)C(=O)C2` (centres unmarked) [Compound 12, 1-(((4-(6-(4-(4-fluorophenoxy)phenyl)picolinoyl)piperazin-1-yl)sulfonyl)methyl)-7,7-dimethylbicyclo[2.2.1]heptan-2-one], the IC50 amounted to 0.14 ± 0.04 µM.
As for `CS(=O)(=O)N1CCN(C(=O)c2cccc(-c3ccc(Oc4ccc(F)cc4)cc3)n2)CC1` [Compound 13, (6-(4-(4-fluorophenoxy)phenyl)pyridin-2-yl)(4-(methylsulfonyl)piperazin-1-yl)methanone], the IC50 was 1.31 ± 0.18 µM.
As for `Cc1noc(C)c1S(=O)(=O)N1CCN(C(=O)c2cccc(-c3ccc(Oc4ccc(F)cc4)cc3)n2)CC1` [Compound 14, (4-((3,5-dimethylisoxazol-4-yl)sulfonyl)piperazin-1-yl)(6-(4-(4-fluorophenoxy)phenyl)pyridin-2-yl)methanone], the IC50 is 0.22 ± 0.04 µM.
With `O=C(c1cccc(-c2ccc(Oc3ccc(F)cc3)cc2)n1)N1CCN(S(=O)(=O)c2cccnc2)CC1` [Compound 15, (6-(4-(4-fluorophenoxy)phenyl)pyridin-2-yl)(4-(pyridin-3-ylsulfonyl)piperazin-1-yl)methanone], the IC50 worked out at 0.42 ± 0.04 µM.
Consider `O=C(c1cccc(-c2ccc(Oc3ccc(F)cc3)cc2)n1)N1CCN(S(=O)(=O)c2cccc(OC(F)(F)F)c2)CC1` [Compound 16], for which the IC50 was 0.32 ± 0.09 µM.
Consider `N#Cc1ccc(S(=O)(=O)N2CCN(C(=O)c3cccc(-c4ccc(Oc5ccc(F)cc5)cc4)n3)CC2)cc1` [Compound 17, 4-((4-(6-(4-(4-fluorophenoxy)phenyl)picolinoyl)piperazin-1-yl)sulfonyl)benzonitrile], for which the IC50 came out at 0.97 ± 0.13 µM.
For the molecule `O=C(O)c1cccc(S(=O)(=O)N2CCN(C(=O)c3cccc(-c4ccc(Oc5ccc(F)cc5)cc4)n3)CC2)c1` [Compound 18, 3-((4-(6-(4-(4-fluorophenoxy)phenyl)picolinoyl)piperazin-1-yl)sulfonyl)benzoic acid], the IC50 worked out at 3.48 ± 0.72 µM.
As for `O=C(O)c1ccc(S(=O)(=O)N2CCN(C(=O)c3cccc(-c4ccc(Oc5ccc(F)cc5)cc4)n3)CC2)cc1` [Compound 19, 4-((4-(6-(4-(4-fluorophenoxy)phenyl)picolinoyl)piperazin-1-yl)sulfonyl)benzoic acid], the IC50 amounted to 4.81 ± 0.18 µM.
To `CS(=O)(=O)NCCNC(=O)c1cccc(-c2ccc(Oc3ccc(F)cc3)cc2)n1` [Compound 21, 6-(4-(4-fluorophenoxy)phenyl)-N-(2-(methylsulfonamido)ethyl)picolinamide] belongs 0.39 ± 0.08 µM; to `CS(=O)(=O)c1cccc(S(=O)(=O)NCCNC(=O)c2cccc(-c3ccc(Oc4ccc(F)cc4)cc3)n2)c1` [Compound 23, 6-(4-(4-fluorophenoxy)phenyl)-N-(2-(3-(methylsulfonyl)phenylsulfonamido)ethyl)picolinamide], 0.39 ± 0.03 µM.
